From patent US11773078B2, “Furin inhibitors” (Glaxosmithkline Intellectual Property Development Limited, priority 2018, dated 2023)

Assays:
[1] = target: T1, furin (endogenous protease) in U20S cells (Homo sapiens, UniProt P09958); assay: Furin cell-based assay (image-based, Golgi-targeted GFP with BMP10 furin/PCSK cleavage site); conditions: 24-hour incubation, read-out: furin golgi cell pXC50 (converted);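 note: Read-out is mean GFP fluorescence of Golgi puncta per cell by high-content imaging, retained when furin inhibited, over an eleven-point 0.00017–10 µM series, four-parameter fit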
T1 construct: the endogenous protease cleaves GFP; endogenous in cells; host or cells: U2OS cells transduced with a BacMam reporter
T1 sequence (P09958 108-794): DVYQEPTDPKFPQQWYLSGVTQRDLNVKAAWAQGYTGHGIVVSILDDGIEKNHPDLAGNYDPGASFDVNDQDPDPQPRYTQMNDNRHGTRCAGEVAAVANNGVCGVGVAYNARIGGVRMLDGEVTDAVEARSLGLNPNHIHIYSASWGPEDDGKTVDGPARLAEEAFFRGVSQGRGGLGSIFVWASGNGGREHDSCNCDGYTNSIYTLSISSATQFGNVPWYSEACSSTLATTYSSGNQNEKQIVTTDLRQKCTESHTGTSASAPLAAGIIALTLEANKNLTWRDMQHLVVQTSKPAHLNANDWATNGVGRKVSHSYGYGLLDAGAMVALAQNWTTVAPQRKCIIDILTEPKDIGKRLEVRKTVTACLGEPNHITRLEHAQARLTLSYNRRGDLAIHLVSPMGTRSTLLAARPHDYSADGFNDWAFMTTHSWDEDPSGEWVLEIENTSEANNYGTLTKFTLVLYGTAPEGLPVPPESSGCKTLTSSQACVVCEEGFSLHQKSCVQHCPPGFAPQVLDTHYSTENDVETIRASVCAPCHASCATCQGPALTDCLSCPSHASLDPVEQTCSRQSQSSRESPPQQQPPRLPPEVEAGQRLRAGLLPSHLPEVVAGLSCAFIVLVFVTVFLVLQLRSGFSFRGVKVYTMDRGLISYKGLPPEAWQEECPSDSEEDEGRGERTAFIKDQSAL

[2] = target: T2, Furin (108-574-Tev-Flag-His) enzyme (Homo sapiens, UniProt P09958); assay: Furin enzyme assay; format: biochemical
T2 construct: Furin (108-574-Tev-Flag-His) enzyme was expressed and purified from CHO cells; TEV cleavage site (C); FLAG (C); His (C); made in house; host or cells: CHO cells
T2 sequence (P09958 108-574): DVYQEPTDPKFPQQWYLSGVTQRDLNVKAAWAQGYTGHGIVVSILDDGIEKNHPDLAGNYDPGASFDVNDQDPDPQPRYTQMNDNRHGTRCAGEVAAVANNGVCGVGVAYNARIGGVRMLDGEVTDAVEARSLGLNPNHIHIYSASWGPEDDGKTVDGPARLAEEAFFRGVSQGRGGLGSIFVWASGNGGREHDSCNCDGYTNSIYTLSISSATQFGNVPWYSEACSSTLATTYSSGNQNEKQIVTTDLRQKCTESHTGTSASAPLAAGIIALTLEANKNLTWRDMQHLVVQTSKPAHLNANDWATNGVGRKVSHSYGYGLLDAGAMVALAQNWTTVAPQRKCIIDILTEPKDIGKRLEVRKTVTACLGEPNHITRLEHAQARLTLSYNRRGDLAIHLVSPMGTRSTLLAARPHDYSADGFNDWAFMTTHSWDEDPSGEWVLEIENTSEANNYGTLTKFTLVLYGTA
In short: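 Compounds ran as 11-point threefold dilutions (0.00017–10 μM final) against 40 pM furin, purified from CHO cells, for 2 h at room temperature. Buffer: 100 mM HEPES pH7.5 with 1 mM CaCl2 and 0.005% Triton X-100. Envision readout. Four-parameter curve gives pXC50.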

| EC50 [1] [µM] | furin enzyme pIC50 [2] | IC50 ([2]; read-out: furin enzyme pIC50 (converted)) [µM] | Compound |
| --- | --- | --- | --- |
| 0.02 | 8.8 | – | NC1(CCO)CCN(c2ncc(Oc3cc(CN4CCC(CC(=O)O)CC4)cc(-c4cc(Cl)cc(Cl)c4)n3)cn2)CC1 [Example 124, 2-(1-((2-((2-(4-amino-4-(2-hydroxyethyl)piperidin-1-yl)pyrimidin-5-yl)oxy)-6-(3,5-dichlorophenyl)pyridin-4-yl)methyl)piperidin-4-yl)acetic acid] |
| 0.0501 | 8 | – | CP(C)(=O)CC1CCN(Cc2cc(Oc3cnc(N4CCNCC4)nc3)nc(-c3cc(Cl)cc(Cl)c3)c2)CC1 [Example 125] |
| 0.501 | 8.8 | – | CC(CC(=O)O)C1CN(Cc2cc(Oc3cnc(N4CCN(C)CC4)nc3)nc(-c3cc(Cl)cc(Cl)c3)c2)C1 (centres unmarked) [Example 127, 3-(1-((2-(3,5-dichlorophenyl)-6-((2-(4-methylpiperazin-1-yl)pyrimidin-5-yl)oxy)pyridin-4-yl)methyl)azetidin-3-yl)butanoic acid] |
| 0.0794 | 8.2 | – | CN1CCN(c2ncc(Oc3cc(CN4CC5CC(CC(=O)O)CC5C4)cc(-c4cc(Cl)cc(Cl)c4)n3)cn2)CC1 (centres unmarked) [Example 129, 2-(2-((2-(3,5-dichlorophenyl)-6-((2-(4-methylpiperazin-1-yl)pyrimidin-5-yl)oxy)pyridin-4-yl)methyl)octahydrocyclopenta[c]pyrrol-5-yl)acetic acid] |
| 0.00794 | 8.7 | – | CN1CCN(c2ncc(Oc3cc(CN4CCC(CCC(=O)O)CC4)cc(-c4cc(Cl)cc(Cl)c4)n3)cn2)CC1 [Example 130, 3-(1-((2-(3,5-dichlorophenyl)-6-((2-(4-methylpiperazin-1-yl)pyrimidin-5-yl)oxy)pyridin-4-yl)methyl)piperidin-4-yl)propanoic acid] |
| 0.0316 | 8.7 | – | CC(CC1CCN(Cc2cc(Oc3cnc(N4CCN(C)CC4)nc3)nc(-c3cc(Cl)cc(Cl)c3)c2)CC1)C(=O)O (centres unmarked) [Example 131, 3-(1-((2-(3,5-dichlorophenyl)-6-((2-(4-methylpiperazin-1-yl)pyrimidin-5-yl)oxy)pyridin-4-yl)methyl)piperidin-4-yl)-2-methylpropanoic acid] |
| 0.0631 | 8.8 | – | O=C(O)CC1CCN(Cc2cc(Oc3cnc(N4CCCNCC4)nc3)nc(-c3cc(Cl)cc(Cl)c3)c2)CC1 [Example 132, 2-(1-((2-((2-(1,4-diazepan-1-yl)pyrimidin-5-yl)oxy)-6-(3,5-dichlorophenyl)pyridin-4-yl)methyl)piperidin-4-yl)acetic acid] |
| 0.0398 | 8.3 | – | CN1CC2CN(c3ncc(Oc4cc(CN5CCC(CC(=O)O)CC5)cc(-c5cc(Cl)cc(Cl)c5)n4)cn3)CC2C1 (centres unmarked) [Example 133, 2-(1-((2-(3,5-dichlorophenyl)-6-((2-(5-methylhexahydropyrrolo[3,4-c]pyrrol-2(1H)-yl)pyrimidin-5-yl)oxy)pyridin-4-yl)methyl)piperidin-4-yl)acetic acid] |
| 0.0251 | 9.5 | – | C[C@@H](CC1CCN(Cc2cc(Oc3cnc(N4CCN(C)CC4)nc3)nc(-c3cc(Cl)cc(Cl)c3)c2)CC1)C(=O)O [Example 134] |
| 0.01 | 9.2 | – | CN1CCN(c2ncc(Oc3cc(CN4CCC5(CC4)CN(C(=O)CO)C5)cc(-c4cc(Cl)cc(Cl)c4)n3)cn2)CC1 [Example 135, 1-(7-((2-(3,5-dichlorophenyl)-6-((2-(4-methylpiperazin-1-yl)pyrimidin-5-yl)oxy)pyridin-4-yl)methyl)-2,7-diazaspiro[3.5]nonan-2-yl)-2-hydroxyethanone] |
| 0.0158 | 9.8 | – | CN1CCN(c2ccc(Oc3cc(CN4CC[C@@H]5[C@H](CC4)[C@H]5C(=O)O)cc(-c4cc(Cl)cc(Cl)c4)n3)cn2)CC1 [Example 136, (1R,7S,8r)-4-((2-(3,5-dichlorophenyl)-6-((6-(4-methylpiperazin-1-yl)pyridin-3-yl)oxy)pyridin-4-yl)methyl)-4-azabicyclo[5.1.0]octane-8-carboxylic acid] |
| 0.00794 | 9.1 | – | CC(O)CC1CCN(Cc2cc(Oc3cnc(N4CCN(C)CC4)nc3)nc(-c3cc(Cl)cc(Cl)c3)c2)CC1 (centres unmarked) [Example 138, 1-(1-((2-(3,5-dichlorophenyl)-6-((2-(4-methylpiperazin-1-yl)pyrimidin-5-yl)oxy)pyridin-4-yl)methyl)piperidin-4-yl)propan-2-ol] |
| 0.01 | 9.3 | – | CN1CCN(c2ncc(Oc3cc(CN4CCC(CC(O)C(=O)O)CC4)cc(-c4cc(Cl)cc(Cl)c4)n3)cn2)CC1 (centres unmarked) [Example 139, 3-(1-((2-(3,5-dichlorophenyl)-6-((2-(4-methylpiperazin-1-yl)pyrimidin-5-yl)oxy)pyridin-4-yl)methyl)piperidin-4-yl)-2-hydroxypropanoic acid] |
| 0.00794 | 8.8 | – | CN1CCCN(c2ncc(Oc3cc(CN4CCC(OCC(=O)O)CC4)cc(-c4cc(Cl)cc(Cl)c4)n3)cn2)CC1 [Example 140, 2-((1-((2-(3,5-dichlorophenyl)-6-((2-(4-methyl-1,4-diazepan-1-yl)pyrimidin-5-yl)oxy)pyridin-4-yl)methyl)piperidin-4-yl)oxy)acetic acid] |
| 0.00501 | 8.6 | – | CN1CCN(c2ccc(Oc3cc(CN4CCC5(CC4)CNC(=O)OC5)cc(-c4cc(Cl)cc(Cl)c4)n3)cn2)CC1 [Example 141, 9-((2-(3,5-dichlorophenyl)-6-((6-(4-methylpiperazin-1-yl)pyridin-3-yl)oxy)pyridin-4-yl)methyl)-2-oxa-4,9-diazaspiro[5.5]undecan-3-one] |
| 0.00631 | 8.8 | – | CN1CCN(c2ncc(Oc3cc(CN4CCC(CC(N)=O)CC4)cc(-c4cc(Cl)cc(Cl)c4)n3)cn2)CC1 [Example 142, 2-(1-((2-(3,5-dichlorophenyl)-6-((2-(4-methylpiperazin-1-yl)pyrimidin-5-yl)oxy)pyridin-4-yl)methyl)piperidin-4-yl)acetamide] |
| 0.02 | 8.4 | – | CN1CCN(c2ncc(Oc3cc(CN4CCC(OC5(C(=O)O)CC5)CC4)cc(-c4cc(Cl)cc(Cl)c4)n3)cn2)CC1 [Example 143, 1-((1-((2-(3,5-dichlorophenyl)-6-((2-(4-methylpiperazin-1-yl)pyrimidin-5-yl)oxy)pyridin-4-yl)methyl)piperidin-4-yl)oxy)cyclopropanecarboxylic acid] |
| 0.00794 | 8.5 | – | COC1CN(C)CCN(c2ncc(Oc3cc(CN4CCC(CC(=O)O)CC4)cc(-c4cc(Cl)cc(Cl)c4)n3)cn2)C1 (centres unmarked) [Example 144, 2-(1-((2-(3,5-dichlorophenyl)-6-((2-(6-methoxy-4-methyl-1,4-diazepan-1-yl)pyrimidin-5-yl)oxy)pyridin-4-yl)methyl)piperidin-4-yl)acetic acid] |
| 0.002 | 8.9 | – | CC(=O)NCC1CCN(Cc2cc(Oc3ccc(N4CCN(C)CC(F)C4)nc3)nc(-c3cc(Cl)cc(Cl)c3)c2)CC1 (centres unmarked) [Example 145, N-((1-((2-(3,5-dichlorophenyl)-6-((6-(6-fluoro-4-methyl-1,4-diazepan-1-yl)pyridin-3-yl)oxy)pyridin-4-yl)methyl)piperidin-4-yl)methyl)acetamide] |
| 0.0158 | 8.5 | – | CN1CCN(c2ncc(Oc3cc(CN4CCC(CC(=O)O)CC4)cc(-c4cc(Cl)cc(Cl)c4)n3)cn2)CC(C)(O)C1 (centres unmarked) [Example 146, 2-(1-((2-(3,5-dichlorophenyl)-6-((2-(6-hydroxy-4,6-dimethyl-1,4-diazepan-1-yl)pyrimidin-5-yl)oxy)pyridin-4-yl)methyl)piperidin-4-yl)acetic acid] |
| 0.0316 | – | 0.000631 | CN1CCN(c2ncc(Oc3cc(CN4CCC(CC(=O)O)CC4)cc(-c4cc(Cl)cc(Cl)c4)n3)cn2)CC(F)C1 (centres unmarked) [Example 147, 2-(1-((2-(3,5-dichlorophenyl)-6-((2-(6-fluoro-4-methyl-1,4-diazepan-1-yl)pyrimidin-5-yl)oxy)pyridin-4-yl)methyl)piperidin-4-yl)acetic acid] |
| 0.0631 | 8.3 | – | Cc1nc(N2CCN(C)CC2)ncc1Oc1cc(CN2CCC(CC(=O)O)CC2)cc(-c2cc(Cl)cc(Cl)c2)n1 [Example 148, 2-(1-((2-(3,5-dichlorophenyl)-6-((4-methyl-2-(4-methylpiperazin-1-yl)pyrimidin-5-yl)oxy)pyridin-4-yl)methyl)piperidin-4-yl)acetic acid] |
| 0.0794 | 8.3 | – | Cc1nc(N2CCN(C)CC2)ccc1Oc1cc(CN2CCC(CC(=O)O)CC2)cc(-c2cc(Cl)cc(Cl)c2)n1 [Example 149, 2-(1-((2-(3,5-dichlorophenyl)-6-((2-methyl-6-(4-methylpiperazin-1-yl)pyridin-3-yl)oxy)pyridin-4-yl)methyl)piperidin-4-yl)acetic acid] |
| 0.0631 | 8.2 | – | CN1CCN(c2ccc(Oc3cc(CN4CCC(CC(=O)O)CC4)cc(-c4cc(Cl)cc(Cl)c4)n3)cc2)CC1 [Example 150, 2-(1-((2-(3,5-dichlorophenyl)-6-(4-(4-methylpiperazin-1-yl)phenoxy)pyridin-4-yl)methyl)piperidin-4-yl)acetic acid] |

| Compound | EC50 [1] [µM] | furin enzyme pIC50 [2] | IC50 ([2]; read-out: furin enzyme pIC50 (converted)) [µM] |
| --- | --- | --- | --- |
| CN1CCN(c2ncc(Oc3cc(CN4CCC(OCC(=O)O)C4)cc(-c4cc(Cl)cc(Cl)c4)n3)cn2)CC1 (centres unmarked) [Example 128, 2-((1-((2-(3,5-dichlorophenyl)-6-((2-(4-methylpiperazin-1-yl)pyrimidin-5-yl)oxy)pyridin-4-yl)methyl)pyrrolidin-3-yl)oxy)acetic acid] | 0.631 | 7.9 | – |
